PubChem BioAssay AID1963850 (Molecular Pharmacology Branch, DTP, NCI, 2024)

Tested on: 192522-019-R-J2-PDC complex tumor spheroid viability
Experiment: Anticancer human tumor 192522-019-R-J2-PDC patient-derived colon adenocarcinoma cell line growth inhibition [POLQ]
Details: for IC50: curve of first compound; for viability, T/C: stronger effect = lower value
Procedure: Multicellular complex tumor spheroid response to Polymerase (POL) inhibitors (novobiocin, ART-558, RP6685) in combination with a variety of drugs and investigational agents in selected tumor cell lines
The POL inhibitors (novobiocin, ART-558, and RP6685) were evaluated both individually and in combination with standard of care and investigational anticancer small molecules within a complex spheroid model of solid tumors. . Complex spheroids include a stromal component modeled by human endothelial cells (HUVEC) and fibroblasts modeled by human mesenchymal stem cells (MSCs). The concentration ranges selected for each drug and investigational agent were based upon clinically achievable concentrations if the clinical Cmax of the agent was known.
Compounds. The drugs and investigational agents: novobiocin (NSC847541), ART-558 (NSC835418), RP-6685 (NSC848927), peposertib (NSC802822), ceralasertib (NSC780249), elimusertib (NSC800525), camonsertib (NSC841442), AZD-1390 (NSC803789), olaparib (NSC753686), talazoparib (NSC767125), rucaparib (NSC756644), sotorasib (NSC818433), MRTX-1133 (NSC836407), SN-38 (NSC673596), topotecan (NSC609699), epotoside (NSC141540), doxorubicin (NSC123127), gemcitabine (NSC613327), 5-fluorouracil (NSC19893), paclitaxel (NSC125973), vemurafenib (NSC761431), MSA-2 (NSC828583), SN-011 (NSC837082), adavosertib (NSC754352), prexasertib (NSC758257), carboplatin (NSC241240) and oxaliplatin (NSC266046), were obtained from the National Cancer Institute (NCI) Developmental Therapeutics Program Chemical Repository (21). The FDA-approved anticancer drug set is available from the Developmental Therapeutics Program at https://dtp.cancer.gov/organization/dscb/obtaining/. […] The stock solutions were prepared in dimethyl sulfoxide (DMSO, Sigma-Aldrich, St. Louis, MO, cat. D2650), except for the platinum compounds which were prepared in saline (Quality Biological, Gaithersburg, MD, cat. 114-055-101), at 800-fold the tested concentration and stored at -70 degrees C prior to their use. All drugs and investigational agents were tested over a range starting from a high concentration at or near the clinical Cmax and decreasing in half-log increments. If the clinical Cmax for an agent had not been determined, the highest concentration tested was 10 microM, except for SN-38, which was tested at a high concentration of 1 microM.
Cell Culture. All cells were maintained in an incubator at 37 degrees C and 5% CO2 with 95% humidity. The PDC lines were cultured according to standard operating procedures established by the NCI PDMR (https://pdmr.cancer.gov). Table 3 of the manuscript, lists the cell lines along with the number of the three cell types plated to form the mct-spheroids and media for tumor cell growth. After thawing, all PDC lines, except 997537-175-T-J1-PDC and 415267-285-R-J2-PDC, were cultured in Matrigel-coated flasks prepared with a working solution of 1X Ham's F-12 nutrient mix, without supplementation (Thermo Fisher Scientific, cat. 11765054), 100 U/mL penicillin-streptomycin (Thermo Fisher Scientific, cat. 15140122), and 2.5% Matrigel (Corning Inc., Corning, NY, cat. 354248) for the first three passages. The two PDC lines 997537-175-T-J1-PDC and 415267-285-R-J2-PDC were cultured on uncoated flasks. The 857933-349-R-J2-PDC line was cultured in 6C/Colon 1B media containing advanced DMEM/F-12 (Thermo Fisher Scientific, cat. 12634028), 10 mM HEPES (Thermo Fisher Scientific, cat. 15630080), 1X GlutaMAX supplement (Thermo Fisher Scientific, cat. 35050061), 0.1 mg/mL primocin (InvivoGen, San Diego, CA, cat. ant-pm-2), 10% defined fetal bovine serum, heat inactivated (HyClone Laboratories Inc., Logan, UT, cat. SH30070.03HI), 50% L-WRN conditioned media (ATCC, cat. CRL-3276), 1.25 mM N-Acetyl-L-cysteine (Sigma-Aldrich, cat. A9165), 10 mM nicotinamide (Sigma-Aldrich, cat. N0636), 1X B-27 supplement (Thermo Fisher Scientific, cat. 17504044), 1X N-2 supplement (Thermo Fisher Scientific, cat. […]
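Also: spheroids exposed to drugs for seven days before reading.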
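For viability, T/C in this document: 100% = DMSO vehicle control viability in luminescence.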

Cn1ncnc1[C@H]1c2n[nH]c(=O)c3cc(F)cc(c23)N[C@@H]1c1ccc(F)cc1 + Nc1ccc(C#CCN(C(=O)Cc2ncc(C(F)(F)F)cc2C(F)(F)F)c2ccc(F)cc2)nn1
IC50 (second compound 0.0316 µM): > 100 nM | IC50 (second compound 0.1 µM): > 100 nM | IC50 (second compound 0.316 µM): > 100 nM | IC50 (second compound 1 µM): > 100 nM | IC50 (second compound 3.16 µM): > 100 nM | IC50 (second compound 10 µM): > 100 nM | viability, T/C (second compound 0.0316 µM, first compound 0.000316 µM): 101% | viability, T/C (second compound 0.0316 µM, first compound 0.001 µM): 108% | viability, T/C (second compound 0.0316 µM, first compound 0.00316 µM): 101% | viability, T/C (second compound 0.0316 µM, first compound 0.01 µM): 104% | viability, T/C (second compound 0.0316 µM, first compound 0.0316 µM): 99.4% | viability, T/C (second compound 0.0316 µM, first compound 0.1 µM): 98.9% | viability, T/C (second compound 0.1 µM, first compound 0.000316 µM): 108% | viability, T/C (second compound 0.1 µM, first compound 0.001 µM): 100% | viability, T/C (second compound 0.1 µM, first compound 0.00316 µM): 107% | viability, T/C (second compound 0.1 µM, first compound 0.01 µM): 110% | viability, T/C (second compound 0.1 µM, first compound 0.0316 µM): 113% | viability, T/C (second compound 0.1 µM, first compound 0.1 µM): 91.4% | viability, T/C (second compound 0.316 µM, first compound 0.000316 µM): 107% | viability, T/C (second compound 0.316 µM, first compound 0.001 µM): 95.4% | viability, T/C (second compound 0.316 µM, first compound 0.00316 µM): 97.9% | viability, T/C (second compound 0.316 µM, first compound 0.01 µM): 108% | viability, T/C (second compound 0.316 µM, first compound 0.0316 µM): 111% | viability, T/C (second compound 0.316 µM, first compound 0.1 µM): 102% | viability, T/C (second compound 1 µM, first compound 0.000316 µM): 119% | viability, T/C (second compound 1 µM, first compound 0.001 µM): 109% | viability, T/C (second compound 1 µM, first compound 0.00316 µM): 102% | viability, T/C (second compound 1 µM, first compound 0.01 µM): 99.9% | viability, T/C (second compound 1 µM, first compound 0.0316 µM): 105% | viability, T/C (second compound 1 µM, first compound 0.1 µM): 114% | viability, T/C (second compound 3.16 µM, first compound 0.000316 µM): 102% | viability, T/C (second compound 3.16 µM, first compound 0.001 µM): 107% | viability, T/C (second compound 3.16 µM, first compound 0.00316 µM): 109% | viability, T/C (second compound 3.16 µM, first compound 0.01 µM): 106% | viability, T/C (second compound 3.16 µM, first compound 0.0316 µM): 105% | viability, T/C (second compound 3.16 µM, first compound 0.1 µM): 104% | viability, T/C (second compound 10 µM, first compound 0.000316 µM): 108% | viability, T/C (second compound 10 µM, first compound 0.001 µM): 114% | viability, T/C (second compound 10 µM, first compound 0.00316 µM): 109% | viability, T/C (second compound 10 µM, first compound 0.01 µM): 99.2% | viability, T/C (second compound 10 µM, first compound 0.0316 µM): 99.2% | viability, T/C (second compound 10 µM, first compound 0.1 µM): 107%
